# Reference: patent US20170119907A1, “Targeted Therapeutics” (MEDIVATION TECHNOLOGIES, INC., priority 2014, published 2017)
# Columns and labels:
# [1] = test system: Raji cells / rabbit dorsal femoral condyle explants; test: Adherence of calcein-labeled Raji cells to rabbit dorsal femoral condyle explants; assay type: cell-based; details: cells incubated with 10 μM compound in PBS, 30 min; 475/535 nm; FIG. 6B
# Procedure: Raji cells were labeled with calcein for 30 min, washed with PBS, and incubated with Compound 4 or Compound 20 (10 μM in PBS) or with PBS for 30 min. Cells were washed in PBS. Rabbit dorsal femoral condyle explants were then incubated for 30 min with (1) the PBS-incubated, calcein-labeled Raji cells or (2) the calcein-labeled Raji cells that had been incubated with 10 μM Compound 4 or Compound 20. Explants were washed twice with excess PBS, and the 475/535 nm filter set on the Molecular Imaging Gel Logic system was used to detect the binding of […] to the explants by detecting the calcein.
# [2] = test system: Raji cells; test: Adherence of Raji cells to rabbit dorsal femoral condyle explants; assay type: cell-based; details: photomicrographs, FIG. 6B
# [3] = test system: rabbit dorsal femoral condyle explants; test: Binding to rabbit dorsal femoral condyle explants (fluorescence staining); details: 100 μM in PBS, 30 min; 530/600 nm; FIGS. 5A, 5B
# Procedure: Rabbit dorsal femoral condyle explants were incubated with PBS or 100 μM Compound 4 or Compound 20 in PBS for 30 min. Explants were washed twice in excess PBS. Staining of explants was determined using the 530/600 nm filter set on the Molecular Imaging Gel Logic system.
# [4] = test system: human MSCs; test: Adherence of human MSCs to rabbit dorsal femoral condyle explants; assay type: cell-based; details: photomicrographs, FIG. 6A
# [5] = test system: rabbit dorsal femoral condyle explants; test: Binding to and staining of rabbit dorsal femoral condyle explants; details: photomicrographs, FIGS. 5A-B
# [6] = test system: Raji cells; test: Binding to Raji cells (visual inspection of staining); assay type: cell-based; details: 10 μM in PBS, 30 min; FIG. 4B
# Procedure: Raji cells were incubated in PBS without Compounds 4 or 20 or with 10 μM Compound 4 or 10 μM Compound 20 in PBS for 30 min and then washed twice with 1 mL PBS. Samples were visually inspected to determine staining
# [7] = test system: Raji cells; test: Binding to Raji cells (fluorescence, Gel Logic system); assay type: cell-based; details: 10 μM in PBS; 1, 5, 15 or 30 minutes; 530 nm/600 nm; FIG. 2B
# Procedure: 10^6 Raji cells were incubated with 10 μM Compound 4 or 10 μM Compound 20 in PBS or with PBS alone for 1, 5, 15 or 30 minutes. Cells were washed once in PBS and then the fluorescence of Compound 4 or Compound 20 was analyzed in a Gel Logic system with 530 nm/600 nm excitation/emission settings.
# [8] = test system: Raji cells; test: Raji cell viability, trypan blue staining; assay type: cell-based; details: times and concentrations tested (at or below 20 μM), FIG. 3C
# Procedure: Cell viability was measured by using trypan blue to stain dead cells. Cells (2×10^5) were incubated with various concentrations of Compound 4 for 30 min, and viable cells were counted and compared to the number of viable cells in an untreated sample. Values for treated cells were normalized to untreated cells.
# In a similar fashion to Example B2a, Compound 20 was assessed for its effect on viability of Raji cells as determined by trypan blue staining, as described in Example B2a.
# [9] = test system: Raji cells; test: Binding to and staining of Raji cells (Example B1b); assay type: cell-based; details: photomicrographs; for binding to Raji cells: FIG. 2B, Example B1b; for binding to and staining of Raji cells: FIG. 4B
# [10] = test system: human MSCs / rabbit dorsal femoral condyle explants; test: Adherence of calcein-labeled human MSCs to rabbit dorsal femoral condyle explants; assay type: cell-based; details: MSCs incubated with compound (Compound 4: 5 μM or 10 μM), 30 min or 10 min; 475/535 nm; FIG. 6A
# Procedure: Human MSCs were labeled with calcein for 30 min, washed with PBS, and incubated with Compound 4 (5 μM or 10 μM) or with PBS for 30 min. Rabbit dorsal femoral condyle explants were then incubated for 30 min with (1) the PBS-incubated, calcein-labeled MSCs, (2) the calcein-labeled MSCs incubated with 5 μM Compound 4, or (3) the calcein-labeled MSCs incubated with 10 μM Compound 4. Explants were washed twice with excess PBS, and the 475/535 nm filter set on the Molecular Imaging Gel Logic system was used to detect the binding of MSCs to the explants by detecting the calcein. In another experiment, the procedure was repeated with two batches of Compound 4, and with Compound 20, with an incubation time of 10 min instead of 30 min.
# [11] = test system: ARH-77 cells; test: Binding of compounds to ARH-77 cells (Example B1a); assay type: cell-based; details: photomicrographs, FIG. 2A
# [12] = test system: human MSCs; test: Human MSC proliferation, CELLTITER GLO assay (ATP levels); assay type: cell-based; details: 24 h, various concentrations, compared with untreated cells; FIG. 3A
# Procedure: This example reports the effects of 24 hour treatment with Compound 4 on viability and proliferation of human MSCs.
# Cell proliferation was measured using the CELLTITER GLO® assay (Promega), which measures ATP levels. Cells (5×10^5) were incubated with various concentrations of Compound 4 for 24 h. Proliferation was compared to that of untreated cells. Proliferation values for 24 h were normalized to time=0 and compared with values for untreated cells.
# [13] = test system: ARH-77 cells; test: Binding to ARH-77 cells (fluorescence staining); assay type: cell-based; details: 10 μM, 30 min; 530 nm/600 nm filter set; FIG. 2A
# Procedure: ARH-77 cells (an EBV-transformed B lymphoblastoid cell line established from cells of a patient with plasma cell leukemia) were incubated as indicated with PBS or 10 μM Compound 4 for 30 min. Cells were washed twice with 1 mL PBS, and staining was detected using a 530 nm/600 nm filter set on a Molecular Imaging Gel Logic system.
SMILES,Adherence of calcein-labeled Raji cells to explants [1],adherence of Raji cells to rabbit dorsal femoral condyle explants [2],Binding to rabbit dorsal femoral condyle explants (fluorescence) [3],adherence of human MSCs to rabbit dorsal femoral condyle explants [4],binding to and staining of rabbit dorsal femoral condyle explants [5],Binding to Raji cells (visual staining) [6],Binding to Raji cells (fluorescence) [7],Toxic effects on Raji cells (viability) [8],binding to Raji cells [9],binding to and staining of Raji cells [9],Adherence of calcein-labeled human MSCs to explants [10],binding to ARH-77 cells [11],Effect on human MSC proliferation [12],binding to ARH-77 cells [13]
"Cc1cc2nc3cc(C)c(NCCCCCCNC(=O)c4ccc(-c5ccc(C(=O)NCCCCCCNc6cc7c(cc6C)nc6cc(C)c(N)cc6[n+]7-c6ccccc6)cc5)cc4)cc3[n+](-c3ccccc3)c2cc1N.[Cl-].[Cl-] [Compound 20, (3-amino-7-{[6-({4-[4-({6-[(7-amino-5-chloranuide-2,8-dimethyl-5-phenyl-5λ^6,10-phenazin-5-ylium-3-yl)amino]hexyl}carbamoyl)phenyl]phenyl}formamido)hexyl]amino}-2,8-dimethyl-5-phenyl-5λ^6,10-phenazin-5-ylium-5-e)chloranuide]",promoted adherence,promote adherence,strong fluorescence,promote adherence,bind to and stain,bind to Raji cells,bind to Raji cells,did not have toxic effects,binding,bind to and stain,promote adherence,,,
"Cc1cc2nc3cc(C)c(NCCCCCCCCNc4cc5c(cc4C)nc4cc(C)c(N)cc4[n+]5-c4ccccc4)cc3[n+](-c3ccccc3)c2cc1N.[Cl-].[Cl-] [Compound 4, 7,7′-(octane-1,8-diylbis(azanediyl))bis(3-amino-2,8-dimethyl-5-phenylphenazin-5-ium) chloride]",promoted adherence,promote adherence,strong fluorescence,promote adherence,bind to and stain,bind to Raji cells,bind to Raji cells,,binding,bind to and stain,promote adherence,binding,does not affect human MSC proliferation,binds to ARH-77 cells
